Earlier results on one compound are cited in PubChem BioAssay AID977608.

The data set has as its target Cruzipain (Trypanosoma cruzi) (UniProt P25779). As to the kind of experiment: literature IC50 values for PDB complexes, PDB-derived complexes (AID 977608). As to conditions: PDB protein-ligand complexes, protein: cruzain, chain 3I06_A, PDB entry 3I06.

In the case of `CCn1cnc2c(Nc3cc(F)cc(F)c3)nc(C=N)nc21`, the IC50 was 0.2 nM.

The term IC50 denotes the point on the concentration scale where inhibition reaches its midpoint.
